Laboratory results published in ChEMBL document CHEMBL1135667, “Synthesis of halogen-substituted pyridyl and pyrimidyl derivatives of [3,2-c]pyrazolo corticosteroids: strategies for the development of glucocorticoid receptor mediated imaging agents” (J Med Chem, 2002).

Target: T1, Glucocorticoid receptor (Homo sapiens) (UniProt P04150)
T1 sequence (whole entry): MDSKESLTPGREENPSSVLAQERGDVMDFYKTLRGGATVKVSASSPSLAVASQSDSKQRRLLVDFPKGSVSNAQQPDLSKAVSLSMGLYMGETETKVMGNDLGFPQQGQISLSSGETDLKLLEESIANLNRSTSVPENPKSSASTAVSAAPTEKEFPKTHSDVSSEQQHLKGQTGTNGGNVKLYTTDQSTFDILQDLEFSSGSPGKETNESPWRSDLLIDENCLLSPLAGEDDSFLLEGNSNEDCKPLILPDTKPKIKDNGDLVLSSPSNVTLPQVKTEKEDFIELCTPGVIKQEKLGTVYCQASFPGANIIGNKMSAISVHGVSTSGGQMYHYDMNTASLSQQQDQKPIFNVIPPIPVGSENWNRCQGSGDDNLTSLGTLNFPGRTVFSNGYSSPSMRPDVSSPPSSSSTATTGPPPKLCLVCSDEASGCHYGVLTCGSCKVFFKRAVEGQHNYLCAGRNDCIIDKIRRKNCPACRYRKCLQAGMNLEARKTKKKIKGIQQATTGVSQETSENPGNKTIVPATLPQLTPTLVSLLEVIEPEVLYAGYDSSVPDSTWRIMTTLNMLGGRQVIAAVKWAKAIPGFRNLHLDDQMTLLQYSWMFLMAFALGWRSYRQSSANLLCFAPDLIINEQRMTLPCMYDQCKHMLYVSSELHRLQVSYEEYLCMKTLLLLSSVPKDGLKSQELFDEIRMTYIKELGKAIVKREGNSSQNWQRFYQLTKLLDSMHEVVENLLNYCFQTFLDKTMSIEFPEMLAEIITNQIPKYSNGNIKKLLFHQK
Conditions: HeLa
Description: Relative transcriptional activation in HeLa cells expressing glucocorticoid receptor

RSA	SMILES
0	C[C@@H]1CC2C3CCC4=Cc5c(cnn5-c5ncccn5)CC4(C)C3C(O)CC2(C)[C@@]1(O)C(=O)CO (some centres not stated)
121	C[C@@H]1CC2C3CCC4=Cc5c(cnn5-c5cccnc5F)CC4(C)C3C(O)CC2(C)[C@@]1(O)C(=O)CO (some centres not stated)
0	C[C@@H]1CC2C3CCC4=Cc5c(cnn5-c5ccncn5)CC4(C)C3C(O)CC2(C)[C@@]1(O)C(=O)CO (some centres not stated)
33	C[C@@H]1CC2C3CCC4=Cc5c(cnn5-c5cnccc5Cl)CC4(C)C3C(O)CC2(C)[C@@]1(O)C(=O)CO (some centres not stated)
24	C[C@@H]1CC2C3CCC4=Cc5c(cnn5-c5ccc(Cl)nc5)CC4(C)C3C(O)CC2(C)[C@@]1(O)C(=O)CO (some centres not stated)
436	C[C@@H]1CC2C3CCC4=Cc5c(cnn5-c5ccc(F)nc5)CC4(C)C3C(O)CC2(C)[C@@]1(O)C(=O)CO (some centres not stated)
483	C[C@@H]1CC2C3CCC4=Cc5c(cnn5-c5ccc(F)cc5)CC4(C)C3C(O)CC2(C)C1(O)C(=O)CO (some centres not stated)
135	C[C@@H]1CC2C3CCC4=Cc5c(cnn5-c5ccncc5)CC4(C)C3C(O)CC2(C)[C@@]1(O)C(=O)CO (some centres not stated)
97	C[C@@H]1CC2C3CCC4=Cc5c(cnn5-c5cccnc5Cl)CC4(C)C3C(O)CC2(C)[C@@]1(O)C(=O)CO (some centres not stated)
30	C[C@@H]1CC2C3CCC4=Cc5c(cnn5-c5ccccn5)CC4(C)C3C(O)CC2(C)[C@@]1(O)C(=O)CO (some centres not stated)
100	C[C@@H]1C[C@H]2[C@@H]3CCC4=CC(=O)C=C[C@]4(C)[C@@]3(F)[C@@H](O)C[C@]2(C)[C@@]1(O)C(=O)CO
255	C[C@@H]1CC2C3CCC4=Cc5c(cnn5-c5cccnc5)CC4(C)C3C(O)CC2(C)[C@@]1(O)C(=O)CO (some centres not stated)
